The record followed here is ChEMBL document CHEMBL5214986, “Discovery of selective covalent cathepsin K inhibitors containing novel 4-cyanopyrimidine warhead based on quantum chemical calculations and binding mode analysis” (Bioorg Med Chem, 2022).

Experiment [1] addresses T1, Cathepsin K (Homo sapiens) (UniProt P43235).
T1 sequence (whole entry): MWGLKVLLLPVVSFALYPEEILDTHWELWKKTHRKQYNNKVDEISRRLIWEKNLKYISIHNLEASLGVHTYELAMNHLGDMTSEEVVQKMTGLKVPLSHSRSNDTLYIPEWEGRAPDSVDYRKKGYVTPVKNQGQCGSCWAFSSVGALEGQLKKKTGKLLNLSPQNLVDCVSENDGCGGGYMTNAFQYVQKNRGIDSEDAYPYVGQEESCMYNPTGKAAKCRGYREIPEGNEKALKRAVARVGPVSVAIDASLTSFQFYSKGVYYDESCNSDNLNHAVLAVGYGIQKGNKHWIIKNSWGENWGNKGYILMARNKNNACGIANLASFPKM
Put plainly: Inhibition of Cathepsin K (unknown origin) assessed as inhibition of AFC release at 10 uM using sequence LR labelled with AFC as substrate by fluorescence based analysis.

Experiment [2] has as its target T1, Cathepsin K (Homo sapiens). Put plainly: Inhibition of Cathepsin K (unknown origin) assessed as inhibition of AFC release at 1 uM using sequence LR labelled with AFC as substrate by fluorescence based analysis.
In a further experiment the target is Cathepsin S (Homo sapiens, UniProt P25774). Put plainly: Inhibition of Cathepsin S (unknown origin) assessed as inhibition of AFC release using sequence VVR labelled with AFC as substrate by fluorescence based analysis.
Another experiment addresses T2, Cathepsin K (Homo sapiens, UniProt P43235).
T2 sequence (P43235 whole entry): T1 sequence (whole entry)
Description: Inhibition of Cathepsin K (unknown origin) assessed as inhibition of AFC release using sequence LR labelled with AFC as substrate by fluorescence based analysis.

For the next experiment, the target named is Cathepsin B (Homo sapiens, UniProt P07858). Description: Inhibition of Cathepsin B (unknown origin) assessed as inhibition of AFC release using sequence RR labelled with AFC as substrate by fluorescence based analysis.
Experiment [3] deals with T1, Cathepsin K (Homo sapiens). Put plainly: Reversible inhibition of Cathepsin K (unknown origin) assessed as inhibition of AFC release using sequence LR labelled with AFC as substrate preincubated with enzyme for 10 to 60 mins followed by substrate addition by fluorescence based analysis.
In experiment [4] the target is Cathepsin (B and K) (Homo sapiens) (UniProt P43235+P07858). Description: Selectivity index, ratio of IC50 for Cathepsin B (unknown origin) to IC50 for Cathepsin K (unknown origin) by fluorescence based analysis. The experiment is classed as protein assay.
Experiment [5] addresses Cathepsin (S and K) (Homo sapiens) (UniProt P25774+P43235). Description: Selectivity index, ratio of IC50 for Cathepsin S (unknown origin) to IC50 for Cathepsin K (unknown origin) by fluorescence based analysis. The experiment is classed as protein assay.

The term inhibition denotes the change of the read-out against control, counted positive when it falls. What is called IC50 is the concentration needed to halve the response being measured.

Each structure is given as a SMILES string. Activity calls are given as the source filed them. The rule behind the calls is not given here. Some results are limits rather than exact numbers.

Cathepsin S, sequence (P25774 whole entry): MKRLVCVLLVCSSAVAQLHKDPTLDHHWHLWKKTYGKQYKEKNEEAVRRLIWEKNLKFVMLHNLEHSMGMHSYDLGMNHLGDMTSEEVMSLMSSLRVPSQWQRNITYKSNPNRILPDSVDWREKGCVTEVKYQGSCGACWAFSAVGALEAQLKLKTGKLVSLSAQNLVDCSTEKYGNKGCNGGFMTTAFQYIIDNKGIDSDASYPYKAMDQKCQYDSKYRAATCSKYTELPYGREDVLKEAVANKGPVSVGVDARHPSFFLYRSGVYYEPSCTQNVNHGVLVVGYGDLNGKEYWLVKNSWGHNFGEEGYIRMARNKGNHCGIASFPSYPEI
Cathepsin (S and K) (Homo sapiens), sequence (P25774 whole entry, looked up, one chain of several): as the sequence (P25774 whole entry) above

`CC(C)(C)CN(Cc1ccc2ccccc2n1)c1nccc(C#N)n1`: the results for the inhibition in experiment [1] and in experiment [2] were 87.4% and 46.9%, respectively.

Turning to `N#Cc1ccnc(N(Cc2ccc(Br)cc2)CC2CCCCC2)n1`, the inhibition in experiment [1] stood at 73.2%; in experiment [2], 47.4%.

Turning to `CC(C)(C)CN(Cc1ccc(-c2ccccc2)cc1)c1nccc(C#N)n1`, the inhibition in experiment [1] turned out to be 83.3%; in experiment [2], 77.5%. Further, the IC50 at Cathepsin S was > 500000 nM; at Cathepsin K it was 235 nM; at Cathepsin B, > 500000 nM.

For `CC(C)(C)CN(Cc1ccc(Cl)cc1)c1nccc(C#N)n1`, the figures for the inhibition in experiment [1] and in experiment [2] were 88.3% and 61.3%, respectively.

For `CC(C)(C)CN(Cc1ccccc1)c1nccc(C#N)n1`, the inhibition in experiment [1] was 82.7%; in experiment [2], -1.05%.

Take `CC(C)(C)CN(Cc1ccc(F)cc1)c1nccc(C#N)n1`: the inhibition worked out at 90.6% in experiment [1] and 56.2% in experiment [2].

Consider `CC(C)(C)CN(Cc1cccc(-c2ccccc2)c1)c1nccc(C#N)n1`, for which the inhibition in experiment [1] was 45.5%; in experiment [2], 33.6%.

On to `CC(C)(C)CN(Cc1ccc2cccnc2c1)c1nccc(C#N)n1`, for which the inhibition in experiment [1] came out at 93.4%; in experiment [2] it was 48%.

For `CN1CCN(c2ccc(CN(CC(C)(C)C)c3nccc(C#N)n3)cc2)CC1`, in experiment [3], the inhibition result was “Active”. Besides, the inhibition in experiment [1] came to 99.1%; in experiment [2], 96.7%. Besides, the half-inhibitory concentration (IC50) on Cathepsin S was > 50000 nM; on Cathepsin K it was 61.9 nM; on Cathepsin B it was > 100000 nM. Further, the values for the Ratio IC50 in experiment [4] and in experiment [5] were > 1620 and > 810, respectively.

Turning to `CC(C)(F)C[C@H](N[C@@H](c1ccc(-c2ccc(S(C)(=O)=O)cc2)cc1)C(F)(F)F)C(=O)NC1(C#N)CC1` [ODANACATIB], the results for the inhibition in experiment [1] and in experiment [2] were 100% and 96.5%, respectively. Moreover, the figures for the half-maximal inhibitory concentration (IC50) on Cathepsin S, on Cathepsin K and on Cathepsin B were < 500 nM, 1.7 nM and < 2000 nM, respectively. Further, the figures for the Ratio IC50 in experiment [4] and in experiment [5] were < 1180 and < 300, respectively.

For `N#Cc1ccnc(N(Cc2ccc(Br)cc2)C2CCCCC2)n1`, the results for the inhibition in experiment [1] and in experiment [2] were 42.8% and 16.8%, respectively.

As to `CC(C)(C)CN(Cc1ccc(Br)cn1)c1nccc(C#N)n1`, in experiment [1], the inhibition was 32.2%.

In the case of `CC(C)(C)CN(Cc1cc(Br)cs1)c1nccc(C#N)n1`, the results for the inhibition in experiment [1] and in experiment [2] were 75.8% and 43.9%, respectively.

For `CC(C)(C)CN(Cc1ccc2ccccc2c1)c1nccc(C#N)n1`, the values for the inhibition in experiment [1] and in experiment [2] were 89.7% and 86.5%, respectively. The IC50 on Cathepsin S was > 500000 nM; at Cathepsin K, 356 nM; on Cathepsin B, > 500000 nM.

Regarding `CC(C)(C)CN(Cc1ccc(Br)cc1)c1nccc(C#N)n1`, the figures for the inhibition in experiment [1] and in experiment [2] were 91.3% and 79.8%, respectively. The IC50 at Cathepsin K was found to be 974 nM.

As to `Cc1ncc(CN(CC(C)(C)C)c2nccc(C#N)n2)s1`, the inhibition in experiment [1] amounted to 93.7%; in experiment [2], 52.6%.
